Calls of active or inactive are those of the source. No cut-off for these calls is given here.
Tested on: Mycolicibacterium smegmatis
Assay: Antimycobacterial activity against Mycobacterium smegmatis overexpressing Mtb DprE1 assessed as inhibition of bacterial growth by resazurin dye based analysis
Format: functional, organism-based

CO[C@H]1/C=C/O[C@@]2(C)Oc3c(C)c(O)c4c(O)c(c(/C=N/N5CCN(C)CC5)c(O)c4c3C2=O)NC(=O)/C(C)=C\C=C\[C@H](C)[C@H](O)[C@@H](C)[C@@H](O)[C@@H](C)[C@H](OC(C)=O)[C@@H]1C [RIFAMPIN]
Activity: Active

— ChEMBL document CHEMBL5537187, “Discovery of N-(1-(6-Oxo-1,6-dihydropyrimidine)-pyrazole) Acetamide Derivatives as Novel Noncovalent DprE1 Inhibitors against Mycobacterium tuberculosis” (J Med Chem, 2024)
